Assay results taken from paper PMC4911353, “Pharmacologic Inhibition of Host Phosphodiesterase-4 Improves Isoniazid-Mediated Clearance of Mycobacterium tuberculosis” (Frontiers in Immunology, 2016).
Read-outs that look alike come from different tables or passages of the source.

What was measured:
[1] = Plasma pharmacokinetics of CC-11050 in mice after a single oral gavage (LC-MS/MS); format: in vivo; conditions: for Plasma concentration of CC-11050: mean ± SD
Protocol: The PDE4i, CC-11050 (N-[2-[(1S)-1-(3-ethoxy-4-methoxyphenyl)-2-(methylsulfonyl) ethyl]-2,3-dihydro-3-oxo-1H-isoindol-4-yl]-(9Cl) cyclopropanecarboxamide) has an empirical formula of C24H28N2O6S with one chiral center (Figure S1A in Supplementary Material). Uninfected mice (n = 3 per group) were treated with 5, 25, or 50 mg/kg of CC-11050 by oral gavage. In another experiment, mice (n = 3) were treated with 50 mg/kg of CC-11050 plus 50 mg/kg of INH. A group of mice (n = 3) without treatment were included as negative control. Venous blood was collected at 1, 2, 5, 8, and 24 h after a single gavage administration of CC-11050, with or without INH. Time-matched blood samples were also collected from untreated mice. The animals were gavaged after overnight fasting and fed soon after gavage. Plasma was collected by centrifugation of blood samples at 1,100× g for 10 min at 10°C and used for LC-MS/MS analysis.
The standard curve and quality control for CC-11050 were prepared in mouse plasma diluted 1:1 with Sorenson’s Citrate Buffer (25 mM; pH 1.5). Internal standard was prepared with ^13CD3-CC-11050 and mixed with the standard, quality control, or test samples at 4:1:1 (^13CD3-CC-11050:mouse plasma:Sorenson’s Citrate Buffer, vol/vol/vol) ratio. The mix was centrifuged at 4,000 rpm for 10 min at room temperature, and the supernatant was transferred to a 96-well assay plate. LC-MS/MS was performed using a Sciex API 4000 triple quadrupole mass spectrometer (Sciex, Division of MDS Inc., Canada) coupled to a Shimadzu HPLC system (Shimadzu Scientific Instruments, MD, USA). A Phenomenex Gemini column (5 μm, 2.0 mm × 50 mm; Phenomenex, CA, USA) was used for chromatography with 0.1% formic acid in water (mobile phase A) and 0.1% formic acid in acetonitrile (mobile phase B). The parameters used were 0 min for 10%B, 0.0–2.0 min for 10–75%B, 2.1–3.0 min for 95%B, and 3.05–4.0 min for 10%B. For mass spectrometric detection, a positive ion mode with turbo spray (ion source temperature of 450°C) and a dwell time of 100 ms was used. Analytes were quantified using multiple reactions monitoring (MRM) at the following transitions: mass-to-charge ratio 473.1–178.1 and 477.1–182.1 m/z for CC-11050 and its internal standard, respectively. Peak area ratios of the analyte to its internal standard versus analyte concentration, represented as quadratic regression plots, were derived with 1/x^2 weighting. Watson LIMS™ software was used to determine the pharmacokinetic parameters (Thermo Fisher, PA, USA). Peak plasma concentration (Cmax) and corresponding time (Tmax) were calculated from raw data. Area under the plasma concentration-time curve (AUC) was determined by linear/linear-log trapezoidal rule of non-compartmental model using data from time 0 and the last measurable time point (AUClast). All statistics were performed with Watson LIMS™ software. Plasma concentrations below the limit of quantitation (BLOQ) were treated as 0 for calculation.

lung granulomas = experiment: Histology and morphometric measurement of lung granulomas in Mtb-infected mice; format: in vivo; conditions: 28 days postinfection (14 days of treatment), histology
Protocol: Formalin-fixed lung tissues of Mtb-infected mice were paraffin-embedded, cut into […] sections, and stained with hematoxylin and eosin (H&E) or acid fast staining by Ziehl–Neelsen (ZN) method to visualize host cells and Mtb, respectively (IDEXX-RADIL Laboratories Inc., MO, USA) as described in Ref. ([11]). Stained sections were photographed in a Nikon Microphot-FX photomicrographic system and analyzed with NIS-Elements F3.0 software (Nikon Instruments Inc., NY, USA). Lung granuloma size was morphometrically measured using PathScan Enabler IV scanner (Meyer Instruments, Houston, TX, USA) and SigmaScan Pro software (Systat Software, Inc., CA, USA). Histopathologic analysis and morphometry were performed by an experienced pathologist blinded to the sample identity.

[2] = design: method as in PMID 26981575; conditions: rabbits, cited from earlier work
[3] = single oral dose 50 mg/kg CC-11050 + 50 mg/kg INH
[4] = single oral dose 50 mg/kg CC-11050 only

For `CCOc1cc([C@@H](CS(C)(=O)=O)N2Cc3cccc(NC(=O)C4CC4)c3C2=O)ccc1OC` [CC-11050, N-[2-[(1S)-1-(3-ethoxy-4-methoxyphenyl)-2-(methylsulfonyl)ethyl]-2,3-dihydro-3-oxo-1H-isoindol-4-yl]-(9Cl) cyclopropanecarboxamide], the AUClast ([1]; single oral dose 5 mg/kg) was 1,080 ng × h/ml, the AUClast ([1]; single oral dose 25 mg/kg) was 2,800 ng × h/ml and the AUClast [1, 3] was 13,900 ng × h/ml. The Cmax [1, 3] was 1,610 ng/ml, the Tmax [1, 3] was 5.0 h and the “Plasma concentration of CC-11050” value ([1]; single oral dose 50 mg/kg CC-11050 + 50 mg/kg INH, 1 h) was 905.35 ± 594.23 ng/mL. For the same compound, the “Plasma concentration of CC-11050” value ([1]; single oral dose 50 mg/kg CC-11050 + 50 mg/kg INH, 2 h) was 1,309.39 ± 214.08 ng/ml, the “Plasma concentration of CC-11050” value ([1]; single oral dose 50 mg/kg CC-11050 + 50 mg/kg INH, 5 h) was 1,609.18 ± 167.2 ng/ml and the “Plasma concentration of CC-11050” value ([1]; single oral dose 50 mg/kg CC-11050 + 50 mg/kg INH, 8 h) was 1,271.73 ± 249.18 ng/ml. For the same compound, the “Plasma concentration of CC-11050” value ([1]; single oral dose 50 mg/kg CC-11050 + 50 mg/kg INH, 24 h) was 4.96 ± 1.85 ng/mL, the AUClast [1, 4] was 10,200 ng × h/ml and the Cmax [1, 4] was 1,410 ng/ml. For the same compound, the Tmax [1, 4] was 2.0 h, the “Plasma concentration of CC-11050” value ([1]; single oral dose 50 mg/kg CC-11050 only, 1 h) was 1,331.6 ± 136.97 ng/ml and the “Plasma concentration of CC-11050” value ([1]; single oral dose 50 mg/kg CC-11050 only, 2 h) was 1,409.47 ± 140.85 ng/ml. For the same compound, the “Plasma concentration of CC-11050” value ([1]; single oral dose 50 mg/kg CC-11050 only, 5 h) was 948.85 ± 128.7 ng/mL, the “Plasma concentration of CC-11050” value ([1]; single oral dose 50 mg/kg CC-11050 only, 8 h) was 820.6 ± 265.98 ng/mL and the “Plasma concentration of CC-11050” value ([1]; single oral dose 50 mg/kg CC-11050 only, 24 h) was 1.27 ± 1.1 ng/mL. For the same compound, the “Time to peak plasma concentration (Tmax)” value ([1]; single oral dose, each of three dose levels 5, 25, 50 mg/kg) was 1 to 2 h, the “Impact on size and structure of lung lesions” value (lung granulomas) was “no significant impact” and the Cmax ([2]; 50 mg/kg) was 163 ng/mL. The Tmax ([2]; 50 mg/kg) was 4 h and the “Effect of INH on the pharmacokinetics of CC-11050” value [2] was “no effects”.
